Read-outs that look alike come from different tables or passages of the source.
Assays:
[1] = tested on: FtsB-mNG localization in E. coli lptD4213 (imp); assay: Localization of FtsB-mNG (fluorescence microscopy); type: cell-based; settings: peptide c = 100 μM, 60 min after addition, MOPS rich medium, 37 °C
Method: were incubated for 1 h at 50 °C. The condensates were collected by centrifuging for 10 s. The digests were mixed for a few seconds and transferred to another tube. 0.5 % TFA was added to inactivate trypsin. The samples were […]
E.coli mutant lptD4213 (imp)
MOPS: MOPS EZ Rich Defined Medium Kit M2105 (Teknova).
At the end of the day, the cells
The next day, the cells were grown and diluted […]
objective. […] In all experiments, the cells […]
ex470/40, dic495LP, em525/50).

[2] = tested on: E. coli lptD4213 (imp); assay: Growth assay (OD600) with outer membrane-permeable E. coli lptD4213 (imp); type: cell-based; settings: for Δt1/2 (delay in growth compared to DMSO-treated sample): inhibitor c = 50 μM, MOPS medium, 37 °C
Method: Growth assays were performed to assess the in vitro cytotoxicity of peptides. The experiments were executed under sterile conditions. For each assay, 20 mL of fresh MOPS medium was prepared (Teknova Inc MOPS EZ Rich Defined Medium Kit | M2105: 40 mM MOPS, 4 mM Tricine, 0.01 mM FeSO4, 9.5 mM NH4Cl, 0.276 mM […]
MOPS medium with Streptomycin (30 μg/mL) and incubated overnight at 200 rpm and 37°C. The next day, the […]
peptide stocks in DMSO were diluted to four times the desired highest concentration to be measured in MOPS medium. The peptide dilutions were vortexed and briefly centrifuged. 50 μL of MOPS medium was added to each well of a Corning® 96-well Clear Flat Bottom Polystyrene TC-treated Microplate. A twofold dilution series was performed by adding 50 μL of the diluted peptide to the top row, mixing it and taking 50 μL to the next row. At each step the solution was resuspended five times. This was repeated until the last row which was skipped in order to obtain a reference measurement. After 2-3 h, the E.coli lptD4213 (imp) pre-culture was diluted to an OD600 of 0.00005. Then, 50 μL of diluted culture were added to each well and the plate sealed using a lid and parafilm. The OD600 was measured every 15 min over a period of more than 20 h (continuously shaking, 37°C) using a BioTek Synergy H1 plate reader. The obtained data were analyzed and relative growth curves plotted with GraphPad Prism 8. The assays were performed as technical triplicates. A single overnight pre-culture was used to prepare the diluted MOPS culture used in the growth assay. […]

[3] = biological target: T1, FtsQ(50–276) (Escherichia coli, UniProt P06136); type: biochemical, E. coli; set-up: pET16b FtsQ(50˗276), a His6 fusion; made in house; host or cells: Escherichia coli BL21 DE3
T1 sequence (P06136 50-276): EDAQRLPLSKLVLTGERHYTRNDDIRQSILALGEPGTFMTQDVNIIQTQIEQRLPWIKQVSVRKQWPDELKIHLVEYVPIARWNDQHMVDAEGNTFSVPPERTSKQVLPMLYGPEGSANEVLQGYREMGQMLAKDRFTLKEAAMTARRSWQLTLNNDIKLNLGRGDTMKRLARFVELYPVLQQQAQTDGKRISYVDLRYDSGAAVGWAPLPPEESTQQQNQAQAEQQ
Method: 1.5 Protein modification assay
To determine the reactivity of the different modifiers FtsQ(50˗276) was diluted to a concentration of 100 µM in 20 mM NH4HCO3 buffer (pH 7.6, 150 mM NaCl). The individual peptides were diluted to a concentration of 250 μM in the same buffer. Equal volumes of both solutions were mixed and incubated at 37 °C for the given time period (1 h or 3 h). The reaction was quenched using 5x SDS sample buffer (pH 6.8, 1.875 g TRIS-Cl, 25 mL glycerol, 5 g SDS, 12.5 mL β-mercaptoethanol, 0.5 % bromphenol blue and add 50 mL ddH2O). Samples were heated to 96 °C for 2 min and subsequently analysed by 17 % tris/tricine PAGE (15 min at 90 V and then 3:45 h at 150 V). PageRuler™ Prestained Protein Ladder, 10 to 180 kDa (Thermo Scientific™) was used as a ladder.
Staining was performed using standard Coomassie Staining Solution (40 mL EtOH, 0.3 g Coomassie Blue R250, 0.3 g Coomassie Blue G250, ad 100 mL ddH2O.) and then destained using water.
17 % Tris/Tricine gel (2x):
Running gel: 1.6 mL H2O, 5.5 mL AB-mix, 2.5 mL Buffer A, 100 μL 10% APS, 10 μL 1% TEMED Stacking gel: 2.1 mL H2O, 0.5 mL AB-mix, 0.38 mL Buffer A, 50 μL 10% APS, 5 μL 1% TEMED […]
Buffer A (4x) pH 8.45 3M Tris, 0.3 % SDS; Anode Buffer (10x) pH 8.8, 3M Tris; Cathode buffer (10x) 1M Tris, […]

[4] = biological target: T1, FtsQ(50–276); settings: tryptic digest, LC-MS/MS
Method: μM CaCl2, 50 mM NaCl, traces of (NH4)6Mo7O24, H3BO3, CoCl2, CuSO4, MnCl2 and ZnSO4, 1.32 mM dibasic anhydrous […], 0.20% glucose, 1.5 mM KOH, 0.199 mM adenine, cytosine, uracil and guanine and 0.01 mM to 10 mM amino acids). A preculture of E.coli lptD4213 (imp) was prepared in 5 mL MOPS medium with streptomycin (30 μg/mL), which was grown overnight at 200 rpm and 37°C. The next day, the overnight culture was diluted a thousandfold and grown up to an OD600 of about 0.5 at 200 rpm and 37°C. After 2-3h, the culture was diluted to an OD600 of 0.1. 10 mM peptide stocks in DMSO were subsequently diluted to 200 μM in MOPS medium. For measuring two time points, a total volume of 110 μL peptide dilution was prepared, for 3 timepoints this was 160 μL. For each time point, 50 μL of diluted peptide was added into an Eppendorf tube, to which 50 μL diluted culture was added (final peptide concentration: 100 μM, starting OD600 = 0.05). The tubes were incubated for either 1,3 or 6 h at 200 rpm and 37°C. Then the cells were fixed using 8.3 μL 37% formaldehyde solution in H2O and incubated for 5 min at 200 rpm and 37°C. Subsequently, the mixture was centrifuged at 500 rpm for 5 min, after which the supernatant was discarded. The pellets were redissolved in 7.5 μL PBS buffer and stored at […]
Microscopy slides were prepared by melting 1% Nobel Agarose in MiliQ water in a microwave. 800 μL was dispersed over a well slide, a microscopy slide was put on top and air bubbles were removed. The agar was allowed to cool for 15 min, after which the microscopy slide was removed. The frozen samples were thawed and 3 μL of each sample was added to separate wells, after which a covering glass was put on top. Using an Olympus IX83 microscope with 100 times magnification ocular and phase contrast (halogen lamp wat approximately 7V), the morphology of the cells was investigated. Pictures were taken and subsequently analyzed with ImageJ and the ObjectJ Cell Counter (https://sils.fnwi.uva.nl/bcb/objectj/examples/CellCounter/cellcounter-md/cellcounter.html, accessed on February 2020).
For the MS/MS experiment samples were prepared as follows. The FtsQ(50˗276) stock solution was diluted to 100 μM and the stock of peptide 24fα was diluted to 250 μM with previously used binding buffer (20 mM NH4HCO3 (pH 7.6), 150 mM NaCl). 10 μL of each diluted stock were merged and the resulting mixture incubated over night at 37 °C. Then the samples were mixed with 5x SDS Sample buffer and 2.5 μL/lane loaded on to a 17% tris/tricine PAGE. The gel was run for 15 min at 90 V and 2h at 150 V.
A container of glass was prepared and extensively washed with soda and water. The gel was placed in the container and incubated in fixing solution (50% EtOH, 3% H3PO4) overnight to remove SDS. The next day, the fixing solution was removed and the gel washed with water a couple of times. Colloidal Coomassie staining solution (34% MeOH, 3 % H3PO4, 150 g (NH4)2SO4/L, 1 g/L G250) was added and the gel stained for 2 d. Then the gel was washed 3x for 30 min with water. Then the bands corresponding to modified and unmodified FtsQ were cut out (1 mm3 pieces) from the gel and transferred to original Eppendorf tubes. The gel pieces were washed with 200 μL water by vortex mixing for 30 s. Then the water was discarded. The gel pieces were then washed with 200 μL MeOH:50 mM NH4HCO3 (1:1 v/v) for 1 min with intermittent vortex mixing. The supernatant was discarded and the procedure repeated once. Then the gel pieces were dehydrated for 5 min in 200 μL of ACN: 50 mM NH4HCO3 (1:1 v/v) with intermittent vortex mixing. The supernatants were discarded and 200 μL of 100 % ACN added, mixed and incubated for 30 s. The samples were dried in a SpeedVac (appr. 5 min). They were then […]
rehydrated in 20 μL of 12 ng/μL Trypsin in 0.01% ProteaseMAX surfactant (Promega): 50 mM NH4HCO3 (Trypsin gold stock 1 μg/μl from Promega, high thermostability) for 10 min (2 μL to 200 μL) and overlayed with […]

[5] = OD600 every 15 min over 22 h, n = 3 technical replicates

In the case of “A6NELSBTRPG6mFY (sidechain bridge or staple) [15fα, 24fα lacking seven N-terminal and two C-terminal amino acids; negative control peptide]”, the FtsB-mNG midcell localization [1] was “regular accumulation of FtsB-mNG at the midcell”, the “lowest concentration with inhibitory effect on growth” value ([2]; concentration-dependent effect on growth after 15 h, highest tested concentration 100 μM, n = 3 replicates) was > 100 µM and the “inhibitory activity on bacterial growth (OD600)” value ([2]; inhibitor c = 25 μM, OD600 every 15 min over 22 h, n = 3 technical replicates) was “did not exhibit inhibitory activity”.

For “A6NELSBTRPG6mFYRL (sidechain bridge or staple) [17fγ, vinyl sulfone-modified 17-mer macrocyclic scaffold]”, the “specificity of FtsQ(50–276) modification (number of up-shifted bands)” value [3] was “two up-shifted bands” and the “Δt1/2 (delay in growth compared to DMSO-treated sample)” value [2, 5] was 4.5 h.

“A6NELSBTRPG6mFYRL (sidechain bridge or staple) [17fδ, dichlorotriazin-modified 17-mer macrocyclic scaffold]” was tested, and the “Δt1/2 (delay in growth compared to DMSO-treated sample)” value [2, 5] was 5.7 h.

With “QEALEERA6NELSBTRPG6mFYRL (sidechain bridge or staple) [24fα]” the “covalent labeling of FtsQ(50–276) (up-shifted band)” value ([3]; peptide 125 μM, FtsQ(50–276) 50 μM, 20 mM NH4HCO3 pH 7.6, 150 mM NaCl, 37 °C, 1 or 3 h) was “showed labeling of FtsQ(50–276)”, the “count ratio 24fα-modified / unmodified FtsQ, ID 2 HYTRNDDIR” value [4] was 1.60 and the “count ratio 24fα-modified / unmodified FtsQ, ID 3 […](*)” value [4] was 0.43. The “count ratio 24fα-modified / unmodified FtsQ, ID 4 K/QWPDELK/[…]” value [4] was 1.01, the “count ratio 24fα-modified / unmodified FtsQ, ID 5 […](*)” value [4] was 1.20 and the “count ratio 24fα-modified / unmodified FtsQ, ID 6 […]/EMGQMLAK(*)” value [4] was 1.00. The “count ratio 24fα-modified / unmodified FtsQ, ID 7 DRFTLK” value [4] was 1.03, the “count ratio 24fα-modified / unmodified FtsQ, ID 8 EAAMTAR*” value [4] was 0.62 and the “count ratio 24fα-modified / unmodified FtsQ, ID 9 R/[…] (contains K208)” value [4] was 1.13. The “count ratio 24fα-modified / unmodified FtsQ, ID 10 LNLGR/GDTMK/R (contains K218)” value [4] was 0.56, the “count ratio 24fα-modified / unmodified FtsQ, ID 11 […]/R (contains K239)” value [4] was 0.20 and the “count ratio 24fα-modified / unmodified FtsQ, ID 12 ISYVDLR” value [4] was 1.24. The “count ratio 24fα-modified / unmodified FtsQ, ID 13 […]” value [4] was 2.47, the “count ratio 24fα-modified / unmodified FtsQ, ID 1 LVLTGER” value ([4]; peptide 125 μM + FtsQ 50 μM overnight 37 °C) was 1.17 and the “Δt1/2 (delay in growth compared to DMSO-treated sample)” value [2, 5] was 3.6 h.

“QEALEERA6NELSBTRPG6mFYRL (sidechain bridge or staple) [24fβ]” was tested, and the “covalent labeling of FtsQ(50–276) (up-shifted band)” value ([3]; pH 7.6) was “showed labeling of FtsQ(50–276)” and the “Δt1/2 (delay in growth compared to DMSO-treated sample)” value [2, 5] was 1.7 h.

In the case of “QEALEERA6NELSBTRPG6mFYRL (sidechain bridge or staple) [24fγ, vinylsulfon-modified macrocyclic 24f, N-acetylated]”, the “specificity of FtsQ(50–276) modification (number of up-shifted bands)” value [3] was “multiple up-shifted bands” and the “covalent labeling of FtsQ(50–276) (up-shifted band)” value ([3]; pH 7.6) was “showed labeling of FtsQ(50–276)”.

“QEALEERA6NELSBTRPG6mFYRL (sidechain bridge or staple) [24fδ]” was tested, and the “covalent labeling of FtsQ(50–276) (up-shifted band)” value ([3]; pH 7.6) was “showed labeling of FtsQ(50–276)” and the “Δt1/2 (delay in growth compared to DMSO-treated sample)” value [2, 5] was 4.1 h.

From PMC9413201, “Covalent Proteomimetic Inhibitor of the Bacterial FtsQB Divisome Complex” (Journal of the American Chemical Society, 2022)
